Several values for one entry are separate records, joined by “and”; a condition that tells them apart may be missing. Identical values can stand only once. Like-named read-outs stand apart in the source and are kept apart here.
How the values were obtained:
[1] = test system: human monocyte-derived macrophages (MDM); test: MTT cell viability / mitochondrial activity assay in MDM; settings: for Cell viability by MTT, normalized to untreated control cells: replicates
Protocol: Human monocytes were obtained, cultured, and differentiated into MDM as previously described[11],[12],[34],[62]. The cell viability after treatment with nanoparticles was evaluated using the MTT assay. […] The cells were then washed with PBS after which 100 μL of MTT solution was added to each well (5 mg/mL) for 45 min at 37 °C. The MTT solution was then replaced with 200 μL/well of DMSO. A Molecular Devices SpectraMax M3 plate reader with SoftMax Pro 6.2 software (Sunnyvale, CA) was used to record absorbance at a wavelength of 490 nm.

[2] = test system: HIV-1ADA; test: Antiretroviral EC50/IC50 in MDM by HIV-1 RT activity after HIV-1ADA challenge; type: cell-based; settings: for RT activity (cpm/ mL): replicate wells
Protocol: To determine long-term antiretroviral efficacy following a single treatment, MDMs were plated in flat-bottom 12-well plates at a density of 1.2 × 10^6 cells/well. […] After treatment, the cells were washed twice with PBS and cultured in a fresh culture medium without drug with half-media replacement every other day. On days 1, 5, 10, 15, 20, 25, and 30 following treatment, the cells were infected with HIV-1ADA (a macrophage-tropic viral strain) at a multiplicity of infection of 0.1 infectious particles/cell for 8 h. MDM were cultured, and media samples collected on day 10 for the measurement of HIV reverse transcriptase (RT) activity as previously described[64],[65]. Cells were fixed in 2% PFA at each time point, and expression of the HIV-1p24 antigen was determined by immunocytochemistry. […] After 4 h of viral challenge, the cells were washed with PBS and given fresh media that contained the same concentrations of drug (0.00005–5,000 nM). Cell supernatants were collected 10 days later and assayed for HIV-1 RT activity as described above. Replicate studies were performed in CEM-ss CD4+ T-cell cultures. Specifically, cells were plated in 96-well plates, centrifuged at 650 × g for 5 min, and resuspended in (0.1–1,000 nM) drug-containing media for 1 h. The subsequent challenge with HIV-1NL4–3-eGFP, cell culture, sample collection, and determination of HIV-1 RT activity were performed as previously reported[13],[15].

[3] = test system: CEM-ss T-cells; settings: replicates
Protocol: Supplementary Fi gur e 9. ProTide Biological Characterizations. […]
one- way analysis of variance (ANOVA) followed by Tukey’s post hoc test was used to compare the prodrug and TFV-DP levels among three treatment groups (*P ≤ 0.05, **P < 0.01, […]
(0.0001– 1000 nM) and determined by HIV-1 reverse transcriptase (RT) activity after viral challenge with HIV -1ADA at an MOI of 0.1. Data was normalized and expressed as percentage of HIV-1 control ± SEM; N = 4.
(1 picture or pasted object on this page, not shown here)

## CC(C)OC(=O)[C@H](C)N[P@](=O)(CO[C@H](C)Cn1cnc2c(N)ncnc21)Oc1ccccc1 [TAF, tenofovir alafenamide]
[1]; 100 μM
  toxicity to cells: highly toxic to cells
[1]; 8 h
  concentration above which a decrease in cell viability was observed: above 12.5 μM
[1]; 8 h, 1.5625 uM
  Cell viability by MTT, normalized to untreated control cells: 0.7334 and 0.7343 and 0.7491
[1]; 8 h, 3.125 uM
  Cell viability by MTT, normalized to untreated control cells: 0.6802 and 0.6819 and 0.7483
[1]; 8 h, 6.25 uM
  Cell viability by MTT, normalized to untreated control cells: 0.6627 and 0.6548 and 0.6836 and 0.7177
[1]; 8 h, 25 uM
  Cell viability by MTT, normalized to untreated control cells: 0.6304 and 0.5666 and 0.5754 and 0.5928
[1]; 8 h, 50 uM
  Cell viability by MTT, normalized to untreated control cells: 0.4531 and 0.3981 and 0.3597 and 0.4348
[1]; 8 h, 100 uM
  Cell viability by MTT, normalized to untreated control cells: 0.3842 and 0.3676 and 0.4051 and 0.4296
[1]; 8 h, 200 uM
  Cell viability by MTT, normalized to untreated control cells: 0.3562 and 0.31 and 0.303 and 0.3222
[2]; Human immunodeficiency virus 1, 240 h
  EC50: 0.22 nM
[2]; drug concentration 5e-6 nM
  RT activity (cpm/ mL): 29.681 cpm/ mL and 30.024 cpm/ mL and 28.68 cpm/ mL
[2]; drug concentration 5e-5 nM
  RT activity (cpm/ mL): 35.114 cpm/ mL and 41.925 cpm/ mL and 38.687 cpm/ mL
[2]; drug concentration 0.0005 nM
  RT activity (cpm/ mL): 33.176 cpm/ mL and 39.763 cpm/ mL and 30.439 cpm/ mL
[2]; drug concentration 0.005 nM
  RT activity (cpm/ mL): 15.954 cpm/ mL and 19.78 cpm/ mL and 30.439 cpm/ mL
[2]; drug concentration 0.05 nM
  RT activity (cpm/ mL): 13.503 cpm/ mL and 38.469 cpm/ mL
[2]; drug concentration 0.5 nM
  RT activity (cpm/ mL): 16.77 cpm/ mL and 16.849 cpm/ mL and 12.873 cpm/ mL
[2]; drug concentration 5 nM
  RT activity (cpm/ mL): 0.361 cpm/ mL and 0.448 cpm/ mL and 0.415 cpm/ mL
[2]; drug concentration 50 nM
  RT activity (cpm/ mL): 0.452 cpm/ mL and 0.242 cpm/ mL
[2]; drug concentration 500 nM
  RT activity (cpm/ mL): 0.23 cpm/ mL and 0.324 cpm/ mL and 0.407 cpm/ mL
[2]; drug concentration 5000 nM
  RT activity (cpm/ mL): 0.233 cpm/ mL and 0.252 cpm/ mL and 0.245 cpm/ mL
[3]; 2 hours
  Prodrug measurements, CEM-ss cells: 0.09778 and 0.1063 and 0.08772
[3]; 4 hours
  Prodrug measurements, CEM-ss cells: 0.113 and 0.1292 and 0.1331
[3]; 8 hours
  Prodrug measurements, CEM-ss cells: 0.2769 and 0.2544 and 0.2424
